# Results reported in patent US5612329A (priority 1995, dated 1997).
# Tested on: pBR322 DNA
# Format: biochemical
# Settings: 37° C., 18 hr, pH 7.4
structure (smiles),measurement,value
"C(CCNCCCN1CC1)CNCCCN1CC1 [Synthesis Example 1, 1,12-Diaziridinyl-4,9-diazadodecane]",concentration at which DNA was found to be cross-linked,≤ 0.1 µM
